# Measured values as given in US20160193139A1, “Composition having A. paniculata for wound healing and skin whitening, and method by using the same” (National Dong Hua University, priority 2013, published 2016).
# What was measured:
# [1] = system: burn wound on back skin of C57BL/6 mice; test: Animal skin injury (burn wound) model, wound healing; type: in vivo; conditions: for Wound Area: cream spread on burned site once/day, extract and Andrographolide 0.1 mg/ml, Silver sulfadiazine 1%, mean ± SD
# Description: These mice were used between 8 to 10 weeks of age and age-matched for each experiment.
# A cream matrix containing 1 g polyethylene glycol/poly propylene glycol/poly ethylene glycol (PEG-PPG-PEG; MW=5800; Sigma), 2 ml polyethylene glycol-400 (PEG-400; FCW®, Taiwan), and 3 ml polyethylene glycol-1500 (PEG-1500; FCW®, Taiwan) was formed. The solution of A. paniculata extract and Andrographolide was added into cream matrix and completely mixed (for both of them, the final concentration is 0.1 mg/ml).
# Mice were anesthetized by pentobarbital (50 mg/kg) and removed the hair of back. A stainless steel cylinder tool (1 cm in diameter, 0.785 cm^2 cm in area) was heated for 20 sec and attached on back skin of mice for 2 sec. […] The wound area was measured on days 1, 3, 5, 7, 9, 11, 13, 15, 17, 19, and 21 after drug treatment.
# CCD-966SK cells = test: MTT cell viability assay, CCD-966SK cells; type: cell-based, human; conditions: 50 μg/ml; 24 and 48 h; FIG. 2B
# Description: (§1) HaCaT cell is an immortal human keratinocyte line (CLS order no. 300493) and A375 cell is a human melanoma cell line (ATCC, CRL-1619) that isolated from malignant melanoma. Both cells were cultured in Dulbecco's Modified Eagle Medium (DMEM; Gibco, Carlsbad, Calif., USA) with 10% fetal bovine serum (FBS; Gibco), and 1% Penicillin/Streptomycin (Biowest) in culture incubator at 37° C., 5% CO2. CCD-966SK is a human skin fibroblast (ATCC, CRL-1881) cell line that taken from the breast of patient with invasive ductal carcinoma and cultured in Minimum Essential Medium (MEM; Gibco) with 10% FBS, 1% sodium pyruvate (Biowest), and 1% Penicillin/Streptomycin (Biowest) in culture incubator at 37° C., 5% CO2.
# (§2) The 3-(4,5-dimethylthiazol-2-yl)-2,5-diphenyltetrazolium bromide (MTT, Invitrogen) is a colorimetric based assay that is performed to analyze the proliferation of cells. Cells (1×10^4 cells) were seeded in 96 well plates for overnight. […] The media was removed, and formazan was solubilized by adding 100 of DMSO (Sigma-Aldrich) and absorbance was measured at 570 nm using a microplate reader (Thermo Labsystems, Opsys MR, USA). […]
# A375 cell = test: MTT cell viability assay, A375 cells; type: cell-based, human; conditions: dose-dependent manner; FIG. 5A
# Description: as §1, §2
# HaCaT cells = test: MTT cell viability assay, HaCaT cells; type: cell-based, human; conditions: FIG. 1B
# Description: as §1, §2
# melanin in A375 cells = test: Melanin assay in A375 cells; type: cell-based, human; conditions: after normalization with cell number, dose-dependent manner, FIG. 5B
# Description: Cells (1×10^5 cells) were seeded in 12 well plates and treated with drugs for 24 or 48 hr. Plates were washed with PBS and added 0.5 ml of 1N NaOH, and heating at 100° C. for 1 h. Plates were then centrifuged at 12,000 rpm for 30 min at 25° C. Supernatants (100 μl/well) were added into 96 well plates, and the secretion of melanin was determined by measuring the absorbance at 405 nm using microplate reader (Thermo Labsystems).
structure (smiles),measurement,setting,value
C=C1CC[C@@H]2[C@](C)(CO)[C@H](O)CC[C@@]2(C)[C@@H]1C/C=C1/C(=O)OC[C@H]1O [Andrographolide],wound healing rate compared with silver sulfadiazine-treated mice,"[1]; 0.1 mg/ml cream once/day vs Silver sulfadiazine 1%, FIG. 3",two days earlier
same,Wound Area,[1]; DAY 1,133.57 ± 28.46 mm^2
same,Wound Area,[1]; DAY 3,111.94 ± 24.09 mm^2
same,Wound Area,[1]; DAY 5,85.15 ± 13.35 mm^2
same,Wound Area,[1]; DAY 7,48.43 ± 5.91 mm^2
same,Wound Area,[1]; DAY 9,28.22 ± 9.40 mm^2
same,Wound Area,[1]; DAY 11,16.46 ± 5.43 mm^2
same,Wound Area,[1]; DAY 13,11.62 ± 4.49 mm^2
same,Wound Area,[1]; DAY 15,6.94 ± 5.04 mm^2
same,Wound Area,[1]; DAY 17,4.12 ± 3.96 mm^2
same,Wound Area,[1]; DAY 19,0 mm^2
same,Wound Area,[1]; DAY 21,0 mm^2
same,cell viability of CCD-966SK cells,CCD-966SK cells,significantly decreased
same,cell viability of A375 cell,A375 cell,significantly inhibited
same,cell viability of HaCaT cells,"HaCaT cells; 50 μg/ml, 24 and 48 h",significantly decreased
same,cell viability of HaCaT cells,"HaCaT cells; low doses (1, 5, and 10 μg/ml), 24 h",significantly enhanced
same,expression level of melanin,melanin in A375 cells,significantly inhibited
